Literature values in US20160052938A1, “SPIRO[3H-INDOLE-3,2'-PYRROLIDIN]-2(1H)-ONE COMPOUNDS AND DERIVATIVES AS MDM2-P53 INHIBITORS” (Boehringer Ingelheim International GmbH, priority 2014, published 2016).

Test system: acute lymphoblastic leukemia (ALL) xenograft models with mixed-lineage leukemia (MLL) rearrangement
Settings: Carol et al. 2013; cited from earlier work

Structure (SMILES): CCOc1cc(C(C)(C)C)ccc1C1=N[C@@](C)(c2ccc(Cl)cc2)[C@@](C)(c2ccc(Cl)cc2)N1C(=O)N1CCN(CCCS(C)(=O)=O)CC1 [RG-7112]
- efficacy: particularly efficacious
